# Results: EP2626066A1, “Combination therapy comprising selective VEGFR-2 inhibitors and MEK inhibitors” (Max-Planck-Gesellschaft zur Förderung der Wissenschaften …, priority 2012, dated 2013)
# Tests used:
# [1] = test system: H1975
# Experimental: (§1) All animal procedures were approved by the local animal protection committee and the local authorities. H1975, H441 and H1650 cells (5x10^6 cells) were injected subcutaneously into male nude mice. […] Mice were treated daily by oral gavage of ZD6474 (50 mg/kg, solved in vehicle), PD0325901 (12mg/kg, dissolved in propylene glycol:water (1:1)), the combination of ZD6474 (50 mg/kg) and PD0325901 (12mg/kg) or vehicle detergent alone. Tumor size of tumors expressing high levels of VEGFR2 (H441, H1975) and tumor with low expression of VEGFR2 (H1650) were monitored measuring perpendicular diameters.
# (§2) All animal procedures were approved by the local animal protection committee and the local authorities. High VEGFR2 expressing tumor cell H1975 and H441 (5x10^6 cells), and very low VEGFR2 expressing cells H1650 (5x10^6 cells) were injected subcutaneously into male nude mice. […] Mice were treated daily by oral gavage of ZD6474 (50 mg/kg, solved in vehicle), PD0325901 (12mg/kg, dissolved in propylene glycol:water (1:1)), the combination of ZD6474 (50 mg/kg) and PD0325901 (12mg/kg) or vehicle detergent alone. Tumor size of tumors expressing high levels of VEGFR2 (H441, H1975) and tumor with low expression of VEGFR2 (H1650) were monitored during treatment measuring perpendicular diameters.
# [2] = test system: H1650; settings: H1650, very low VEGFR2; daily oral gavage ZD6474 50 mg/kg, PD0325901 12mg/kg; start at about 50mm^3; Fig. 10
# Experimental: as §1, §2
# [3] = test system: H441; settings: H441, high VEGFR2; daily oral gavage ZD6474 50 mg/kg, PD0325901 12mg/kg; start at about 50mm^3; Fig. 10
# Experimental: as §1, §2
# [4] = test system: H1975 cells; test: VEGF secretion ELISA assay, H1975 cells; format: cell-based, human; settings: H1975 expressing ZD6474 resistance mutation of VEGFR2; in vitro
# Experimental: Cells were either treated with the indicated compounds or DMSO alone. After 4 hours cells were stimulated with 40 ng/ml of VEGF165, or incubated in medium containing DMSO only. Cells were then washed twice with PBS and supplemented with serum-free medium and allowed to secrete VEGF for 48 hours. Secretion of VEGF into cell culture supernatants was measured by Human VEGF Quantikine Kit (R&D Systems) according to manufacturer's instructions.
Compound,"tumor volume ([1]; H1975, high VEGFR2, daily oral gavage ZD6474 50 mg/kg, PD0325901 12mg/kg, start at about 50mm^3, Fig. 10)",tumor volume [2],tumor volume [3],"tumor-growth inhibiting effects of the compound ([1]; H1975 expressing ZD6474 resistance mutation of VEGFR2, in vivo, Fig. 1e)",ZD6474-mediated inhibition of VEGF secretion [4]
"O=C(NOC[C@H](O)CO)c1ccc(F)c(F)c1Nc1ccc(I)cc1F [PD0325901, N-[(2R)-2,3-dihydroxypropoxy]-3,4-difluoro-2-[(2-fluoro-4-iodophenyl)amino]-benzamide]",did not reduce the tumor volume,increased alike,did not reduce the tumor volume,–,–
"COc1cc2c(Nc3ccc(Br)cc3F)ncnc2cc1OCC1CCN(C)CC1 [Vandetanib, N-(4-bromo-2-fluorophenyl)-6-methoxy-7-[(1-methylpiperidin-4-yl)methoxy]quinazolin-4-amine]",–,–,–,suppressed,abolished
